Values quoted from earlier work, collected in PMC4195943, “A novel small-molecule MRCK inhibitor blocks cancer cell invasion” (Cell Communication and Signaling : CCS, 2014).

Legend:
MRCKα = MRCKα (Homo sapiens, UniProt Q5VT25); parameters: method as in PMID 21457715; settings: read-out: in vitro IC50, MRCKα; cited from earlier work
Protein Kinase C = biological target: Protein Kinase C; parameters: method as in PMID 2244923; settings: read-out: in vitro IC50, Protein Kinase C; cited from earlier work

MRCKα, sequence (Q5VT25 whole entry): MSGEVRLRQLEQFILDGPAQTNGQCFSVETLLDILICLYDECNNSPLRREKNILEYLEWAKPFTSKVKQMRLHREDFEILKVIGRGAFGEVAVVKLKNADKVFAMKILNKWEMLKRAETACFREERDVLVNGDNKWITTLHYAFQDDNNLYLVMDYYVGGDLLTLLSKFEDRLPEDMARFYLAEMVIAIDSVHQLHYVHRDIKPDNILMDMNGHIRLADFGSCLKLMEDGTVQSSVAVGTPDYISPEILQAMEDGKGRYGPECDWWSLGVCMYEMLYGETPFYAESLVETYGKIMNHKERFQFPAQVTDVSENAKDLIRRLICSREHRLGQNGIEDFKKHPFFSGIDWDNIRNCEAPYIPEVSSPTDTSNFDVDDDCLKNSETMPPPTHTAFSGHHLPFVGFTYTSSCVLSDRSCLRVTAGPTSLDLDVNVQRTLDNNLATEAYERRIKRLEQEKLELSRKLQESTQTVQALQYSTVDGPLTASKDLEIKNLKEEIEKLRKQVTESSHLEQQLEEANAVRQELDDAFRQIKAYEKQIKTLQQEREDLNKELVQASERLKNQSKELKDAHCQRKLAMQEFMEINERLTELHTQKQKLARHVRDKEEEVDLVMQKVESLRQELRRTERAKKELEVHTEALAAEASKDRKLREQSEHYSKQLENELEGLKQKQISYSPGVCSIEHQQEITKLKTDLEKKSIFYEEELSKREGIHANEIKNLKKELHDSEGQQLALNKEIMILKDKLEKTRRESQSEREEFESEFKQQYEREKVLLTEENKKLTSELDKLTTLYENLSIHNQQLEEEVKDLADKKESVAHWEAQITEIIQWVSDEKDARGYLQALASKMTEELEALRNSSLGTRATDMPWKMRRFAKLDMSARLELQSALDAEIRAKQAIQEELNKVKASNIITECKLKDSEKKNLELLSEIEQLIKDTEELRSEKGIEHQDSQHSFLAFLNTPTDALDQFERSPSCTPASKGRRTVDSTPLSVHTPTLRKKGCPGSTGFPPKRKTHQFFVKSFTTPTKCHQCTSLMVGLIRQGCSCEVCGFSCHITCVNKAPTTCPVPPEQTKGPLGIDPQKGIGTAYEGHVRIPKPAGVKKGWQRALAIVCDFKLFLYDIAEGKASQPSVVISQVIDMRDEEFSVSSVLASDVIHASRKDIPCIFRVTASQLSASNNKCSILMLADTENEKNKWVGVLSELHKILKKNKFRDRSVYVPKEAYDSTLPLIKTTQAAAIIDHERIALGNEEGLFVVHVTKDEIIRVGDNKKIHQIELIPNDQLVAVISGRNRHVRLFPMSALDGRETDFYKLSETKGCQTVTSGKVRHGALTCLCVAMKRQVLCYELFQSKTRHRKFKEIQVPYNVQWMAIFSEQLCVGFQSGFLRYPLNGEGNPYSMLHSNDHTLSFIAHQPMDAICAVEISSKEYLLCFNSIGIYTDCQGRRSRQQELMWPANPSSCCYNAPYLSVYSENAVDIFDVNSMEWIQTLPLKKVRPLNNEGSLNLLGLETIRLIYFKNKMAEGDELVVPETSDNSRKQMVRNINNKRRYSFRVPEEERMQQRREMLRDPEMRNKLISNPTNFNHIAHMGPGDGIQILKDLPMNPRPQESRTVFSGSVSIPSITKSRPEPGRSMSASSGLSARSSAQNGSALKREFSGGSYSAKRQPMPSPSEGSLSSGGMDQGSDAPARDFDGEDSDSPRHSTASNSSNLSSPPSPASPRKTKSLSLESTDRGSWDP

In the case of `COc1ccc2c(c[n+](C)c3c4cc5c(cc4ccc23)OCO5)c1OC` [Chelerythrine], the IC50 (MRCKα) is given as 1.77 µM and the IC50 (Protein Kinase C) is given as 0.66 µM.
